Data: patent US5798359A, “Piperazino derivatives as neurokinin antagonists” (Schering Corporation, priority 1995, dated 1998)

Assays:
[1] = biological target: T1, human neurokinin 2 (NK2) receptor (Homo sapiens, UniProt P21452); test: Neurokinin NK2 receptor binding assay ([3H]-Neurokinin A, CHO cell membranes); settings: for inhibition at 1 µM: 1 μM concentration
T1 construct: expressed in transfected cells; host or cells: Chinese hamster ovary (CHO) cells, G418 medium; membranes
T1 sequence (P21452 1-398): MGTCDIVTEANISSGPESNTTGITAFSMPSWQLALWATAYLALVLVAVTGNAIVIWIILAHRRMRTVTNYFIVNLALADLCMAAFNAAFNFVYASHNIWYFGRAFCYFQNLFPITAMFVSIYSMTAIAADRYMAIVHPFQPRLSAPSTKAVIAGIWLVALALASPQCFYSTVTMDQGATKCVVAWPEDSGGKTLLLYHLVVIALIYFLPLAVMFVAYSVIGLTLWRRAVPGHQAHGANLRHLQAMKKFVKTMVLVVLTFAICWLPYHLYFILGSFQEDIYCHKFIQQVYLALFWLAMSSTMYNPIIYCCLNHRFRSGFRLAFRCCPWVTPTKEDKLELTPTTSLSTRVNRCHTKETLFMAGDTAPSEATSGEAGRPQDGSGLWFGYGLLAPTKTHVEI
Procedure: (§1) Chinese Hamster ovary (CHO) cells transfected with the coding regions for the human neurokinin 1 (NK1) of the human neurokinin 2 (NK2) receptors are grown in Dulbecco's minimal essential medium supplemented with 10% fetal calf serum, 0.1 mM non-essential amino acids, 2 mM glutamine, 100 units/ml of penicillin and streptomycin, and 0.8 mg of G418/ml at 37° C. in a humidified atmosphere containing 5% CO2.
(§2) Cells are detached from T-175 flasks with a sterile solution containing 5 mM EDTA in phosphate buffered saline. Cells are harvested by centrifugation and washed in RPMI media at […] for 5 minutes. The pellet is resuspended in Tris-HCl (pH7.4) containing 1 uM phsphoramidon and 4 ug/ml of chymostatin at a cell density of 30×10^6 cells/ml. The suspension is then homogenized in a Brinkman Polytron (setting 5) for 30-45 seconds. The homogenate is centrifuged at 800×g for 5 min at […] to collect unbroken cells and nuclei. The supernatant is centrifuged in a Sorvall RC5C at 19,000 rpm ([…]) for 30 min at 4° C. The pellet is resuspended, an aliquot is removed for a protein determination (BCA) and washed again. The resulting pellet is stored at -80° C.
(§3) Binding is initiated by the addition of 100 μl of membrane (10-20 μg) containing the human NK-1 or NK-2 receptor in a final volume of 200 μl. After 40 minutes at room temperature, the reaction is stopped by rapid filtration onto Whatman GF/C filters which have been presoaked in 0.3% polyethylenimine. Filters are washed 2 times with 3 ml of 50 mM Tris-HCl (pH7.4). Filters are added to 6 mls of Ready-Safe liquid scintillation cocktail and quantified by liquid scintillation spectrometry in a LKB 1219 RackBeta counter. Non-specific binding is determined by the addition of either 1 μM of CP-99994 (NK1) or 1 μM SR-48968 (NK2) (both synthesized by the chemistry department of Schering-Plough Research Institute).

[2] = biological target: T2, human neurokinin 1 (NK1) receptor (Homo sapiens, UniProt P25103); test: Neurokinin NK1 receptor binding assay ([3H]-Substance P, CHO cell membranes); settings: for Ki: [3H]-Substance P 0.8 nM, Cheng and Prusoff
T2 construct: expressed in transfected cells; host or cells: Chinese hamster ovary (CHO) cells, G418 medium; membranes
Procedure: as §1, §2, §3

T2 sequence (P25103 whole entry): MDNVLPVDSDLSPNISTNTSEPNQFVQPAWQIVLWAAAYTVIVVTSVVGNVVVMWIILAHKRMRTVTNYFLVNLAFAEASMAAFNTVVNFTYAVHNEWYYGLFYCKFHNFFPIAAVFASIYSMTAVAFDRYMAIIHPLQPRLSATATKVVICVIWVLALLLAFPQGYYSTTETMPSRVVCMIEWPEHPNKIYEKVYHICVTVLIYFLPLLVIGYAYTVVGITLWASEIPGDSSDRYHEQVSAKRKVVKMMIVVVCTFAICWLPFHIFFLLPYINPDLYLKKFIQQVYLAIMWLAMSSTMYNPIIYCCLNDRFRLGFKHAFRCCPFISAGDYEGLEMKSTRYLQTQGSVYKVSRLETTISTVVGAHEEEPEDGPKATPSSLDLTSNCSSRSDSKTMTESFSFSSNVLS

Row | SMILES | inhibition at 1 µM [1] [%] | Ki [2] [nM] | Ki ([1]; [3H]-Neurokinin A 1.0 nM, Cheng and Prusoff) [nM] | inhibition at 1 µM ([2]; 1 μM concentration) [%]
1 | COC1(C[S+]([O-])c2ccccc2)CCN(CC(=O)N2CCN(Cc3cc(C(F)(F)F)cc(C(F)(F)F)c3)CC2c2ccc(Cl)c(Cl)c2)CC1 (stereo not drawn) | 24 | 136 | – | –
2 | O=C(CNC1CCN(Cc2ccccc2)CC1)N1CCN(Cc2cccc(C(F)(F)F)c2)CC1c1ccc(Cl)c(Cl)c1 (stereo not drawn) | – | 30 | 175 | –
3 | Cc1cccc(C)c1N1CCN(CC(=O)N2CCN(Cc3cc(C(F)(F)F)cc(C(F)(F)F)c3)CC2c2ccccc2)CC1 (stereo not drawn) | 0 | – | – | 48
